How the values were obtained:
[1] = tested on: nails; assay: In vivo comparison of hexanal composition with citral composition, one hand each; parameters: species or system people; conditions: same concentrations, panel of 22, four weeks
Description: The composition of example 1 and also a composition 1a identical to that of example 1, but in which the hexanal has been replaced by citral, in the same concentrations, were the subject of in vivo tests on a new panel of 22 people under the same conditions as those of the tests from example 1. Each person applied the composition with hexanal to the nails of one hand, and the composition with citral to the nails of the other hand. The right hand/left hand choice was random.

[2] = Aging and yellowing tests; assay type: physicochemical
Procedure: Various aliphatic aldehydes were incorporated into a cosmetic composition, having a formulation corresponding to example 2, at concentrations respectively of 0.001%, 0.002%, 0.005% and 0.01%.
These were methylbutyraldehyde (by way of comparison), hexanal, nonanal, trans-4-decenal, undecanal and undecylenic aldehyde.
The aging, and in particular the tendency toward yellowing, of each composition were tested. The various tests performed comprise holding for one month in an oven at 45° C. and four months in an oven at 50° C., and also exposure to “SUNTEST CPS+”, i.e. in a sealed chamber, regulated at 50° C. under a 500 Watt/m^2 UV/visible lamp for 3×10 hours.
The yellowing was evaluated relative to control compositions having identical formulations, kept at room temperature (20-25° C.), in the dark, for the same duration.

[3] = tested on: fingernails; assay: In vivo tests of efficacy on a panel of people, polish applied to nails; conditions: hexanal 0.05% by weight, panel of 22, four weeks
Description: The composition from example 1 was the subject of in vivo tests on a panel of 22 people aged at least 30 years old, over four weeks, in order to evaluate the efficacy and tolerance. […] The polish was applied under normal usage conditions (namely three applications per week).
The marks of general satisfaction with the cosmetic composition oscillated between 16.9 and 18.3/20.
The marks of general satisfaction with the cosmetic composition oscillated between 16 and 17.3/20.

[4] = 0.01% by weight in composition, aging tests relative to controls
[5] = 0.01% in composition, one month in an oven at 45° C., relative to controls at room temperature in the dark

| Molecule | Yellowing [2, 4] | Yellowing [2, 5] | further results |
| --- | --- | --- | --- |
| CCCCCC=O [hexanal] | did not exhibit yellowing |  | Superiority to citral in improvement of brittle nails [1]: +10%; Superiority to citral in improvement of nail hardness [1]: +8.5%; Superiority to citral in improvement of nail weakness [1]: +18%; Subjects who noticed an overall improvement in the quality of their nails [3]: more than 90% |
| CCCCCCCCC=O [nonanal] | did not exhibit yellowing |  |  |
| CCCCC/C=C/CCC=O [trans-4-decenal] | did not exhibit yellowing |  |  |
| methylbutyraldehyde [reference compound] |  | exhibited yellowing |  |

More lines, main results first:

| Yellowing [2, 4] | Yellowing [2, 5] | Molecule | further results |
| --- | --- | --- | --- |
| did not exhibit yellowing |  | CCCCCCCCCCC=O [undecanal] |  |
|  | exhibited yellowing | C=CCCCCCCCCC=O [undecylenic aldehyde, 10-undecenal] |  |

Reference: patent publication US9211242B2, “Nail-hardening cosmetic composition, use of aldehydes to harden and strengthen nails, and method for applying same” (FIABILA, priority 2009, dated 2015)
